Data as given in PubChem BioAssay AID248 (DTP/NCI, 2004).
“And” between values parts separate entries of the source, which are not always exact repeats. Identical values can stand only once. Inconclusive results and toxic doses are left out. Cut-off read from the data, not from the text of the source: active = T/C of 150% or more; inactive = T/C below 125%.

Test system: L1210 leukemia ip in BDF1 mice, survival T/C
Test: NCI In Vivo Anticancer Drug Screen. Data for tumor model L1210 Leukemia (intraperitoneal) in B6D2F1 (BDF1) mice
Conditions: endpoint: mean survival time, higher = longer survival
Procedure, shortened: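 Ratio derived from survival: compound-dosed mice over vehicle-dosed mice, all bearing a transplantable tumor.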

[1] = dose: 100.0 mg/kg/injection, schedule: Q01DX009 (ip), vehicle: Klucel (hydroxypropylcellulose) (HPC)
[2] = dose: 100.0 mg/kg/injection, schedule: Q01DX009 (ip), vehicle: saline with Tween-80
[3] = dose: 100.0 mg/kg/injection, schedule: Q04DX002 (ip), vehicle: Klucel (hydroxypropylcellulose) (HPC)
[4] = dose: 100.0 mg/kg/injection, schedule: Q04DX003 (ip), vehicle: Klucel (hydroxypropylcellulose) (HPC)
[5] = dose: 100.0 mg/kg/injection, schedule: Q04DX003 (ip), vehicle: saline with Tween-80
[6] = dose: 200.0 mg/kg/injection, schedule: Q01DX009 (ip), vehicle: Klucel (hydroxypropylcellulose) (HPC)
[7] = dose: 200.0 mg/kg/injection, schedule: Q01DX009 (ip), vehicle: saline with Tween-80
[8] = dose: 200.0 mg/kg/injection, schedule: Q04DX002 (ip), vehicle: Klucel (hydroxypropylcellulose) (HPC)
[9] = dose: 200.0 mg/kg/injection, schedule: Q04DX003 (ip), vehicle: Klucel (hydroxypropylcellulose) (HPC)
[10] = dose: 200.0 mg/kg/injection, schedule: Q04DX003 (ip), vehicle: saline with Tween-80
[11] = dose: 400.0 mg/kg/injection, schedule: Q04DX002 (ip), vehicle: Klucel (hydroxypropylcellulose) (HPC)
[12] = dose: 100.0 mg/kg/injection, schedule: Q01DX001 (ip), vehicle: saline
[13] = dose: 400.0 mg/kg/injection, schedule: Q04DX003 (ip), vehicle: Klucel (hydroxypropylcellulose) (HPC)
[14] = dose: 100.0 mg/kg/injection, schedule: Q01DX001 (ip), vehicle: Klucel (hydroxypropylcellulose) (HPC)

Measured: T/C

C=CC1CN2CCC1CC2C(O)c1ccnc2ccc(OC)cc12 (stereo not given) (tested in a mixture with another compound)
inactive: dose: 50.0 mg/kg/injection, schedule: Q01DX009 (ip), vehicle: Klucel (hydroxypropylcellulose) (HPC) 97 % of control and 95 % of control | dose: 50.0 mg/kg/injection, schedule: Q01DX009 (ip), vehicle: saline with Tween-80 95 % of control | dose: 50.0 mg/kg/injection, schedule: Q04DX003 (ip), vehicle: other 95 % of control | dose: 75.0 mg/kg/injection, schedule: Q01DX001 (ip), vehicle: saline 100 % of control and 99 % of control | dose: 100.0 mg/kg/injection, schedule: Q01DX001 (ip), vehicle: carboxymethylcellulose (CMC) 98 % of control | dose: 100.0 mg/kg/injection, schedule: Q01DX001 (ip), vehicle: saline with Tween-80 96 % of control | [1] 97 % of control and 104 % of control | [2] 95 % of control | [3] 107 % of control | [4] 93 % of control | dose: 100.0 mg/kg/injection, schedule: Q04DX003 (ip), vehicle: other 103 % of control | [5] 103 % of control | dose: 100.0 mg/kg/injection, schedule: Q04DX003 (ip), vehicle: saline 102 % of control | dose: 150.0 mg/kg/injection, schedule: Q01DX001 (ip), vehicle: saline 86 % of control and 99 % of control | dose: 200.0 mg/kg/injection, schedule: Q01DX001 (ip), vehicle: carboxymethylcellulose (CMC) 102 % of control | dose: 200.0 mg/kg/injection, schedule: Q01DX001 (ip), vehicle: saline with Tween-80 96 % of control | [6] 97 % of control | [7] 101 % of control | [8] 96 % of control | [9] 93 % of control | dose: 200.0 mg/kg/injection, schedule: Q04DX003 (ip), vehicle: other 93 % of control | [10] 87 % of control | dose: 200.0 mg/kg/injection, schedule: Q04DX003 (ip), vehicle: saline 96 % of control | dose: 300.0 mg/kg/injection, schedule: Q01DX001 (ip), vehicle: saline 89 % of control and 91 % of control | dose: 400.0 mg/kg/injection, schedule: Q01DX001 (ip), vehicle: carboxymethylcellulose (CMC) 93 % of control | dose: 400.0 mg/kg/injection, schedule: Q01DX001 (ip), vehicle: saline with Tween-80 93 % of control | [11] 100 % of control

CN1CC(C)(C)C(=O)N1
inactive: dose: 25.0 mg/kg/injection, schedule: Q01DX001 (ip), vehicle: saline 97 % of control | dose: 50.0 mg/kg/injection, schedule: Q01DX001 (ip), vehicle: saline 100 % of control | [12] 108 % of control | dose: 200.0 mg/kg/injection, schedule: Q01DX001 (ip), vehicle: saline 86 % of control

O=C(COc1ccc(Cl)cc1)Nc1cccc([N+](=O)[O-])c1
inactive: [2] 96 % of control | [7] 92 % of control | dose: 400.0 mg/kg/injection, schedule: Q01DX009 (ip), vehicle: saline with Tween-80 90 % of control

CC(C)Cc1ccc(N=Nc2ccccc2)cc1
inactive: [5] 93 % of control | [10] 93 % of control | dose: 400.0 mg/kg/injection, schedule: Q04DX003 (ip), vehicle: saline with Tween-80 88 % of control

C[N+](C)(C)/N=C/c1ccc(Cl)cc1
inactive: dose: 5.0 mg/kg/injection, schedule: Q01DX001 (ip), vehicle: carboxymethylcellulose (CMC) 98 % of control | dose: 10.0 mg/kg/injection, schedule: Q01DX001 (ip), vehicle: carboxymethylcellulose (CMC) 104 % of control | dose: 20.0 mg/kg/injection, schedule: Q01DX001 (ip), vehicle: carboxymethylcellulose (CMC) 95 % of control | dose: 40.0 mg/kg/injection, schedule: Q01DX001 (ip), vehicle: carboxymethylcellulose (CMC) 104 % of control

CCCCCCCCCCCCCCCCNC(=O)c1cc([N+](=O)[O-])ccc1C(=O)O
inactive: [4] 95 % of control | [9] 95 % of control | [13] 97 % of control

CCCCCC(=C/c1ccccc1)/C=N/N=C(N)N
inactive: dose: 15.0 mg/kg/injection, schedule: Q01DX Z (ip), vehicle: saline 93 % of control | dose: 30.0 mg/kg/injection, schedule: Q01DX Z (ip), vehicle: saline 104 % of control | dose: 30.0 mg/kg/injection, schedule: Q01DX Z (oral), vehicle: saline 94 % of control | dose: 60.0 mg/kg/injection, schedule: Q01DX Z (ip), vehicle: saline 98 % of control | dose: 60.0 mg/kg/injection, schedule: Q01DX Z (oral), vehicle: saline 90 % of control | dose: 120.0 mg/kg/injection, schedule: Q01DX Z (oral), vehicle: saline 94 % of control

COc1cc(CC(C)N)cc(OC)c1OC (stereo not given)
inactive: dose: 50.0 mg/kg/injection, schedule: Q01DX009 (ip), vehicle: saline 110 % of control | dose: 100.0 mg/kg/injection, schedule: Q01DX009 (ip), vehicle: saline 108 % of control | dose: 200.0 mg/kg/injection, schedule: Q01DX009 (ip), vehicle: saline 103 % of control

CCOC(=O)C(CC)(OO)c1ccncc1Br (stereo not given)
inactive: dose: 25.0 mg/kg/injection, schedule: Q01DX001 (ip), vehicle: Klucel (hydroxypropylcellulose) (HPC) 101 % of control | dose: 50.0 mg/kg/injection, schedule: Q01DX001 (ip), vehicle: Klucel (hydroxypropylcellulose) (HPC) 104 % of control | dose: 50.0 mg/kg/injection, schedule: Q04DX003 (ip), vehicle: Klucel (hydroxypropylcellulose) (HPC) 101 % of control | [14] 100 % of control and 101 % of control | [4] 91 % of control | [9] 92 % of control

CCCCCCCCCCCCOc1ccc(C=Nc2ccc(C)cc2)cc1
inactive: [3] 109 % of control | [8] 109 % of control | [11] 95 % of control

CCC(C)(CC=C(C)C)c1ccncc1 (stereo not given)
inactive: [12] 98 % of control

NC(=O)NOCC1NC(=O)C(CONC(N)=O)NC1=O (stereo not given)
inactive: [1] 93 % of control | [4] 104 % of control | [6] 102 % of control | [9] 89 % of control | dose: 400.0 mg/kg/injection, schedule: Q01DX009 (ip), vehicle: Klucel (hydroxypropylcellulose) (HPC) 96 % of control | [13] 95 % of control

Cc1cc(NC(=O)NC/C=C/Br)c2ccccc2n1
inactive: [14] 97 % of control | [4] 98 % of control | dose: 200.0 mg/kg/injection, schedule: Q01DX001 (ip), vehicle: Klucel (hydroxypropylcellulose) (HPC) 108 % of control | [9] 93 % of control | dose: 400.0 mg/kg/injection, schedule: Q01DX001 (ip), vehicle: Klucel (hydroxypropylcellulose) (HPC) 97 % of control | [13] 101 % of control
